Experimental data: US8029764B2, “Methods for detection of colorectal cancer” (The Johns Hopkins University, priority 2001, dated 2011)

System: colorectal tissue transcripts
Experiment: SAGE of normal, adenoma and cancer colorectal tissue (transcript tag counts)
Parameters: species or system human
In short: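 SAGE libraries from two normal colonic epithelium samples, two colorectal adenomas (FAP patients, >70% neoplastic cells) and two colorectal cancers. Transcripts counted as 15-base 3′ tags from oligo(dT)-selected mRNA; repeated ditags, linkers and MHC-locus tags excluded before statistical library comparison.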

[1] = normal colorectal tissue library 1
[2] = normal colorectal tissue library 2

| Sequence | AD1 (SAGE tag count) (SAGE library AD1) | AD2 (SAGE tag count) (SAGE library AD2) | CA1 (SAGE tag count) (SAGE library CA1) | CA2 (SAGE tag count) (SAGE library CA2) | NC1 (SAGE tag count) (SAGE library NC1) | NC2 (SAGE tag count) (SAGE library NC2) | AD1 (SAGE tag count) (adenoma library 1) | AD2 (SAGE tag count) (adenoma library 2) | CA1 (SAGE tag count) (cancer library 1) | CA2 (SAGE tag count) (cancer library 2) | NC1 (SAGE tag count) [1] | NC2 (SAGE tag count) [2] |
| --- | --- | --- | --- | --- | --- | --- | --- | --- | --- | --- | --- | --- |
| GTGGGGGCGC (chemistry not fully specified) | 2 | 0 | 1 | 0 | 5 | 22 |  |  |  |  |  |  |
| GTGGTGGCAG (chemistry not fully specified; the letters are possibly those of the target site) | 1 | 1 | 10 | 3 | 29 | 11 |  |  |  |  |  |  |
| GTGGTTCACG (chemistry not fully specified) | 0 | 0 | 0 | 0 | 4 | 5 | 0 | 0 | 0 | 0 | 4 | 5 |
| GTGTTGGGGG (chemistry not fully specified) |  |  |  |  |  |  | 8 | 6 | 1 | 3 | 21 | 19 |
| GTTTAGAGGG (chemistry not fully specified) |  |  |  |  |  |  | 0 | 0 | 2 | 1 | 5 | 16 |
| TAAATTGCAA (chemistry not fully specified) |  |  |  |  |  |  | 8 | 17 | 5 | 3 | 103 | 59 |
| TAAGGCCTTT (chemistry not fully specified; the letters are possibly those of the target site) |  |  |  |  |  |  | 1 | 0 | 0 | 1 | 6 | 9 |
| TAATCCCAGC (chemistry not fully specified) |  |  |  |  |  |  | 8 | 7 | 16 | 13 | 37 | 33 |
| TAATTTGCAT (chemistry not fully specified) |  |  |  |  |  |  | 1 | 1 | 2 | 0 | 25 | 2 |
| TACGGTGTGG (chemistry not fully specified) |  |  |  |  |  |  | 2 | 2 | 1 | 0 | 7 | 13 |
| TACTCGGCCA (chemistry not fully specified) |  |  |  |  |  |  | 0 | 0 | 1 | 0 | 10 | 5 |
| TACTGTGGAT (chemistry not fully specified) |  |  |  |  |  |  | 0 | 2 | 2 | 1 | 4 | 11 |
| TAGACTAGCA (chemistry not fully specified) |  |  |  |  |  |  | 6 | 6 | 22 | 4 | 31 | 27 |
| TAGGATGGGG (chemistry not fully specified) |  |  |  |  |  |  | 4 | 7 | 6 | 1 | 24 | 30 |
| TATGATGAGC (chemistry not fully specified) |  |  |  |  |  |  | 2 | 2 | 1 | 5 | 13 | 21 |
| TCACAGTGCC (chemistry not fully specified) |  |  |  |  |  |  | 3 | 1 | 3 | 4 | 26 | 7 |
| TCACCGGTCA (chemistry not fully specified) |  |  |  |  |  |  | 10 | 10 | 5 | 6 | 118 | 75 |
| TCAGAGCGCT (chemistry not fully specified) |  |  |  |  |  |  | 0 | 7 | 0 | 1 | 5 | 21 |

| Sequence | AD1 (SAGE tag count) (SAGE library AD1) | AD2 (SAGE tag count) (SAGE library AD2) | CA1 (SAGE tag count) (SAGE library CA1) | CA2 (SAGE tag count) (SAGE library CA2) | NC1 (SAGE tag count) (SAGE library NC1) | NC2 (SAGE tag count) (SAGE library NC2) | AD1 (SAGE tag count) (adenoma library 1) | AD2 (SAGE tag count) (adenoma library 2) | CA1 (SAGE tag count) (cancer library 1) | CA2 (SAGE tag count) (cancer library 2) | NC1 (SAGE tag count) [1] | NC2 (SAGE tag count) [2] |
| --- | --- | --- | --- | --- | --- | --- | --- | --- | --- | --- | --- | --- |
| TCAGCTGCAA (chemistry not fully specified) |  |  |  |  |  |  | 0 | 0 | 9 | 3 | 56 | 16 |
| TCGGAGCTGT (chemistry not fully specified) |  |  |  |  |  |  | 9 | 6 | 3 | 0 | 21 | 20 |
| TCTGAATTAT (chemistry not fully specified) |  |  |  |  |  |  | 0 | 0 | 1 | 0 | 24 | 16 |
| TGACTAATTG (chemistry not fully specified) |  |  |  |  |  |  | 2 | 0 | 0 | 3 | 7 | 9 |
| TGAGTGACAG (chemistry not fully specified) |  |  |  |  |  |  | 0 | 6 | 3 | 7 | 9 | 68 |
| TGATCTCTGT (chemistry not fully specified) |  |  |  |  |  |  | 1 | 0 | 1 | 1 | 6 | 7 |
| TGCAGCACGA (chemistry not fully specified) |  |  |  |  |  |  | 5 | 30 | 24 | 16 | 6 | 185 |
| TGCAGCGCCT (chemistry not fully specified; the letters are possibly those of the target site) |  |  |  |  |  |  | 1 | 1 | 1 | 1 | 16 | 9 |
| TGCCGCCCGC (chemistry not fully specified) |  |  |  |  |  |  | 2 | 2 | 1 | 0 | 14 | 5 |
| TGCTCCTACC (chemistry not fully specified; the letters are possibly those of the target site) |  |  |  |  |  |  | 70 | 22 | 17 | 22 | 140 | 113 |
| TGGCCATCTG (chemistry not fully specified) |  |  |  |  |  |  | 8 | 7 | 3 | 4 | 30 | 24 |
| TGGCGCGTGT (chemistry not fully specified) |  |  |  |  |  |  | 0 | 0 | 9 | 5 | 25 | 8 |
| TGGCTACTTA (chemistry not fully specified) |  |  |  |  |  |  | 1 | 0 | 1 | 2 | 6 | 9 |
| TGGGGAGAGG (chemistry not fully specified) |  |  |  |  |  |  | 20 | 7 | 3 | 7 | 43 | 18 |
| TTAACCCCTC (chemistry not fully specified) |  |  |  |  |  |  | 5 | 9 | 1 | 5 | 34 | 14 |
| TTATGGTGTG (chemistry not fully specified) |  |  |  |  |  |  | 0 | 0 | 0 | 0 | 11 | 17 |
| TTCCACTAAC (chemistry not fully specified) |  |  |  |  |  |  | 7 | 4 | 5 | 5 | 29 | 9 |
| TTCCGCGTTC (chemistry not fully specified) |  |  |  |  |  |  | 0 | 0 | 2 | 2 | 5 | 16 |
